Experimental data reported in patent US20220241308A1, “NEURONAL FUNCTION MODULATING AGENT” (University of Tsukuba, priority 2019, published 2022).

Tests used:
Assay type in all cases: cell-based
[1] = test system: PI3KCA (phosphatidylinositol-4,5-bisphosphate 3-kinase catalyst subunit α); assay: Gene expression experiment (real-time PCR) in SH-SY5Y cells: PI3KCA; settings: for expression of PI3KCA: 24 h
Procedure: (§1) SH-SY5Y cells were seeded in 100 mm-cell dishes (BD Biocoat) at concentrations of 3.7×10^5 cells/mL (10 mL/dish) and cultured for 24 h at 37° C. and 5% CO2. Culture medium used was F12/DMEM (Gibco) supplemented with 1% non-essential amino acids (Gibco), 15% FBS (Bio West), and 1% penicillin/streptomycin (Lonza). After 24 h, the culture medium was completely removed with an aspirator, 10 mL of culture medium Opti-MEM(Gibco) was added to each dish, and the cells were cultured for 24 h at 37° C. and 5% CO2. RNA was extracted from the culture cells and analyzed for the expression of genes described below by real-time PCR (designated as “Control” in FIGS. 2 to 8).
(§2) RNA extraction was performed using ISOGEN Reagent (Nippon Gene Co., Ltd.) in accordance with the protocol recommended by Nippo n Gene Co., Ltd. (see URL: https://www.nippongene.com/siyaku/product/extraction/tds/tds_isogen-rna-dna-protein.pdf). Real-time PCR was performed according to the protocol recommended by Thermo Fisher Scientific using a reagent kit for TaqMan Real-Time PCR (Thermo Fisher Scientific) (see URL: https://assets.thermofisher.com/TFS-Assets/LSG/manuals/4304449_TaqManPCRMM_UG.pdf).
(§3) 24 h after seeding 100 mm-cell dishes (BD Biocoat) with SH-SY5Y cells, the culture medium was completely removed with an aspirator, amyloid β protein (Beta-Amyloid 1-42, AnaSpec) was mixed with Opti-MEM (Gibco) so that the final concentration was 5 μM, 10 mL of the mixture was added to each dish, the cells were cultured for 24 h at 37° C. and 5% CO2, and RNA was extracted. Except for performing the procedure described above, gene expression was analyzed as described above (designated as “Aβ” in FIGS. 2 to 8).
(§4) 24 h after seeding 100 mm-cell dishes (BD Biocoat) with SH-SY5Y cells, the culture medium was completely removed with an aspirator, Sample 1 was mixed with culture medium Opti-MEM(Gibco) so that the final concentration was 12.56 μM, 9,990 μL of the mixture was added to each dish and allowed to stand for 10 min, amyloid β protein (Beta-Amyloid 1-42, AnaSpec) was mixed with Opti-MEM (Gibco) so that the final concentration was […], 10 μL of the mixture was added to each well, the cells were cultured for 24 h at 37° C. and 5% CO2, and RNA was extracted. Except for performing the procedure described above, Gene expression was analyzed as described above (designated as “Aβ+M3,5G” in FIGS. 2 to 8).
(§5) Except that Sample 2 was used instead of Sample 1, gene expression was analyzed as described above (designated as “Aβ+M” in FIGS. 2 to 8).
(§6) Except that Sample 3 was used instead of Sample 1, gene expression was analyzed as described above (designated as “Aβ+M3G” in FIGS. 2 to 8).
(§7) 24 h after seeding 100 mm-cell dishes (BD Biocoat) with SH-SY5Y cells, the culture medium was completely removed with an aspirator, 10 mL of culture medium Opti-MEM(Gibco) mixed with Sample 1 was added to each dish, the cells were cultured for 24 h at 37° C. and 5% CO2, and RNA was extracted. Except for performing the procedure described above, gene expression was analyzed as described above (designated as “M3,5G” in FIGS. 2 to 8).

[2] = test system: PARP1 (poly(ADP-ribose) polymerase 1); assay: Gene expression experiment (real-time PCR) in SH-SY5Y cells: PARP1; settings: 24 h
Procedure: as §1, §2, §3, §4, §5
Except that Sample 3 was used instead of Sample 1, gene expression was analyzed as described above (designated as “Aβ+M3G” in FIGS. 2 to 8). […]

CASP3 (caspase-3) = assay: Gene expression experiment (real-time PCR) in SH-SY5Y cells: CASP3; settings: for expression of CASP3: 24 h
Procedure: as §1, §2, §3, §4, §5, §6, §7

SH-SY5Y cells = assay: ATP production measurement experiment; settings: 12.56 μM; 6 h, 12 h, 24 h; compared to “Control”
Procedure: Specifically, ATP production was measured according to the protocol recommended by Toyo B-NET (URL: https://search.cosmobio.co.jp/cosmo_search_p/search_gate2/docs/TIC_/CA10.20131125.pdf) using an ATP assay reagent (“Cell” ATP Assay reagent, Toyo B-NET) (designated as “Control” in FIG. 9).
Each well of a 96-well plate (BD Biocoat) was seeded with SH-SY5Y cells (model of neuronal cells, ATCC) at a concentration of 2×10^5 cells/mL (100 μL/well) and the cells were cultured at 37° C. and 5% CO2 for 24 h. Culture medium used was F12/DMEM (Gibco) supplemented with 1% non-essential amino acids (Gibco), 15% FBS (Bio West), and 1% penicillin/streptomycin (Lonza).
After 24 h, the culture medium was completely removed with an aspirator, 100 μL of culture medium Opti-MEM (Gibco) was added to each well, and the cells were cultured for 6 h, 12 h, and 24 h at 37° C. and 5% CO2. After each culturing time point, 100 μL of ATP assay reagent (“Cell” ATP Assay reagent, Toyo Ink)) was added to each well and mixed and the mixture was allowed to stand for reaction for 10 min at room temperature in dark conditions. […] Light emission after a lapse of a predetermined time was measured on a microplate reader (Sumitomo Dainippon Pharma) to find ATP production (designated as “Control” in FIG. 9). […]

[3] = 12.56 μM, amyloid β protein-treated cells, compared to “Aβ”
[4] = 12.56 μM, amyloid β protein-treated cells, compared to “Control”
[5] = Sample 1 alone, no amyloid β, compared to “Control”
[6] = amyloid β protein-treated cells, 12.56 μM, ranked against malvidin and malvidin-3-glucoside

How did the “expression of PI3KCA” value [1, 3] turn out when COc1cc(-c2[o+]c3cc(O)cc(OC4OC(CO)C(O)C(O)C4O)c3cc2OC2OC(CO)C(O)C(O)C2O)cc(OC)c1O (centres unmarked) [M3,5G, Malvidin-3,5-diglucoside chloride] was run?
The value was “significantly high”.

And the “expression of PI3KCA” value [1, 4]?
The value was “significantly high”.

What about the “expression of PI3KCA” value [1, 5] of the same molecule?
Its value is “significantly increased”.

And the “activity in increasing the expression of PI3KCA” value [1, 6]?
The value was “highest activity”.

And the “expression of PARP1” value [2, 3]?
The value was “significantly high”.

What about the “expression of PARP1” value [2, 5] of the same molecule?
Its value is “comparable”.

What about the “expression of CASP3” value (CASP3 (caspase-3); [3]) of the same molecule?
The value was “significantly low”.

And the “expression of CASP3” value (CASP3 (caspase-3); [4])?
Its value is “significantly low”.

And the “expression of CASP3” value (CASP3 (caspase-3); [5])?
Its value is “significantly decreased”.

What about the “activity in decreasing the expression of CASP3” value (CASP3 (caspase-3); [6]) of the same molecule?
The value was “highest activity”.

What about the ATP production (SH-SY5Y cells) of the same molecule?
Its ATP production is “increased ATP production”.
